The values below come from publication PMC3006138, “Fexinidazole – A New Oral Nitroimidazole Drug Candidate Entering Clinical Development for the Treatment of Sleeping Sickness” (PLoS Neglected Tropical Diseases, 2010).

SMILES strings stand for the structures. Values joined by “and” are separate entries in the source; they are usually repeats but may differ in a detail not shown here. Equal entries are not always repeated.

The test system of one series is rat liver cells. As to the kind of experiment: Ex vivo unscheduled DNA synthesis. To be noted: positive control. The series is classed as in vivo. As to the method:
Groups of young male Sprague-Dawley rats received fexinidazole at doses of 500, 1000, or 2000 mg/kg orally, and the livers were sampled either 2–4 h or 12–14 h after administration. Hepatocyte suspensions were prepared and incubated in the presence of […] thymidine. Slides of fixed hepatocytes were coated in photographic emulsion and stored for 14 days at 4°C in the dark. The silver grains above the nuclei or cytoplasm (background) were counted, providing a measure of DNA uptake during DNA repair. The difference between these two counts indicated the extent of DNA repair (nuclear net grain count).

For another series, the system named is human lymphocytes. The series is described as follows: In vitro micronucleus test. Format: cell-based. To be noted: 6.25 µg/mL, +S9, positive control. On the procedure:
Duplicate human lymphocyte cultures were prepared from the pooled blood of two donors in two independent experiments. […] The test concentrations for micronucleus analysis were selected by evaluating the effect of fexinidazole on the replication index (RI). In each experiment, micronuclei were analysed at three concentrations. Similar tests were carried out on fexinidazole sulfone. As per the Ames test, this was carried out in the absence of rat liver S9 only.

Series [1] concerns bone marrow polychromatic erythrocytes. As to the kind of experiment: In vivo bone marrow micronucleus test. Further details: species or system mouse. To be noted: 4.0 mg/kg, positive control. As to the method: Groups of six young adult male Crl:CD-1 (ICR) mice were treated with fexinidazole at two oral doses of 0, 500, 1000, or 2000 mg/kg given 24 h apart, and bone marrows were harvested 24 h after the second dose. Slides of bone marrow cells were prepared, Giemsa stained, and 2000 polychromatic erythrocytes per animal were scored for micronuclei.

The test system of series [2] is T. b. rhodesiense (STIB 900). The series is described as follows: In vitro trypanocidal assay (Alamar Blue). The series is classed as cell-based, Trypanosoma brucei rhodesiense. To be noted: Trypanosoma brucei, 72 h; read-out: IC50. As to the method:
(§1) 10 µL of Alamar Blue was added for the final 3 h to determine viability. […] The IC50 values were calculated from the sigmoidal inhibition curves. For cytotoxicity, 4×10^4/mL L-6 rat skeletal myoblast cells were used, and incubations and assessments carried out as above.

For series [3], the system named is T. b. gambiense (STIB 930). As to the kind of experiment: In vitro trypanocidal assay (Alamar Blue). The series is classed as cell-based, Trypanosoma brucei gambiense. To be noted: Trypanosoma brucei, 72 h; read-out: IC50. On the procedure:
Parasites were cultured with or without the test article at a concentration of 3×10^4/mL in Minimal Essential Medium, according to Baltz et al., with the following modifications: 0.2 mM 2-mercaptoethanol, 1 mM Na-pyruvate, 0.5 mM hypoxanthine and 15% heat inactivated horse serum at 37°C in 5% CO2 in 96-well microtitre plates for 72 h. 10 µL of Alamar Blue was added for the final 3 h to determine viability. The assay was assessed by reading the fluorescence in each well at an excitation wavelength of 536 nm and at an emission wavelength of 588 nm. The IC50 values were calculated from the sigmoidal inhibition curves. For cytotoxicity, 4×10^4/mL L-6 rat skeletal myoblast cells were used, and incubations and assessments carried out as above.

The subject of a further series is L-6 rat myoblast cells. As to the kind of experiment: Cytotoxicity assay. Format: cell-based. The settings on record: 72 h, read-out: IC50. As to the method: as §1

With `CC(=O)Nc1ccc2c(c1)Cc1ccccc1-2` [2-acetamidofluorene, reference compound], the “Net nuclear grain count (12–14 h)” value in the series on rat liver cells (75 mg/kg) is on record as 9.8.

Molecule `O=P1(N(CCCl)CCCl)NCCCO1` (centres unmarked) [Cyclophosphamide, reference compound] displayed a Micronucleated binucleate cells in the series with human lymphocytes (24-h PHA) of 3.60%. Also, in the series on human lymphocytes (48-h PHA), the Micronucleated binucleate cells was determined as 12.85%. In series [1], the “Micronucleated PCE/1000” value came to 19.3 and the PCE/NCE is reported as 0.89.

On to `NCCCC(N)(C(=O)O)C(F)F` (centres unmarked) [Eflornithine], for which the IC50 in series [2] was 0.9 µg/mL and 3.8 µM; in series [3] it was 0.4 µg/mL and 1.67 µM; in the series on L-6 rat myoblast cells, 12 µg/mL and 51 µM.

As to `N=C(N)c1ccc(OCCCCCOc2ccc(C(=N)N)cc2)cc1` [Pentamidine], the IC50 in series [2] was 0.003 µg/mL and 9 nM; in series [3], 0.002 µg/mL and 10 nM; with L-6 rat myoblast cells it was 3 µg/mL and 9 µM.

For the molecule `Cc1ccc(C(=O)Nc2ccc(S(=O)(=O)O)c3cc(S(=O)(=O)O)cc(S(=O)(=O)O)c23)cc1NC(=O)c1cccc(NC(=O)Nc2cccc(C(=O)Nc3cc(C(=O)Nc4ccc(S(=O)(=O)O)c5cc(S(=O)(=O)O)cc(S(=O)(=O)O)c45)ccc3C)c2)c1` [Suramin], the IC50 in series [2] is 0.062 µg/mL and 46 nM; in the series with L-6 rat myoblast cells it was > 90 µg/mL and > 70 µM.

Take `CN(C)N=O` [dimethylnitrosamine, reference compound]: the “Net nuclear grain count (2–4 h)” value in the series on rat liver cells (10 mg/kg) was found to be 8.9.
